Data taken from PubChem BioAssay (NCI).
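Results reflect a 48-hour exposure of cells in 96-well plates to compound at five concentrations. GI50 = concentration required for 50% inhibition of growth. TGI: total growth inhibition.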

Tests used:
Assay in all cases: NCI tumour cell line growth inhibition, 48 h
M14 melanoma = tested on: M14 melanoma
BT-549 breast = tested on: BT-549 breast
HCC-2998 colon = tested on: HCC-2998 colon
SK-MEL-5 melanoma = tested on: SK-MEL-5 melanoma
HCT-15 colon = tested on: HCT-15 colon
HS 578T breast = tested on: HS 578T breast
HT29 colon = tested on: HT29 colon
A498 renal = tested on: A498 renal
NCI-H226 lung = tested on: NCI-H226 lung
MALME-3M melanoma = tested on: MALME-3M melanoma

| SMILES | GI50 (M14 melanoma) [µM] | TGI (M14 melanoma) [µM] | GI50 (BT-549 breast) [µM] | TGI (BT-549 breast) [µM] | GI50 (HCC-2998 colon) [µM] | TGI (HCC-2998 colon) [µM] | GI50 (SK-MEL-5 melanoma) [µM] | TGI (SK-MEL-5 melanoma) [µM] | GI50 (HCT-15 colon) [µM] | TGI (HCT-15 colon) [µM] | GI50 (HS 578T breast) [µM] | TGI (HS 578T breast) [µM] | TGI (HT29 colon) [µM] | TGI (A498 renal) [µM] | TGI (NCI-H226 lung) [µM] | TGI (MALME-3M melanoma) [µM] | GI50 (HT29 colon) [µM] | GI50 (A498 renal) [µM] | GI50 (NCI-H226 lung) [µM] | GI50 (MALME-3M melanoma) [µM] |
| --- | --- | --- | --- | --- | --- | --- | --- | --- | --- | --- | --- | --- | --- | --- | --- | --- | --- | --- | --- | --- |
| COc1cnc2c(c1)C(=O)c1c-2n(CCCNC2=NCCS2)c(=O)c2cc([N+](=O)[O-])ccc12 | < 0.01 | 1.16 | 0.0544 | 1.92 | 1.03 | 2.45 | 0.0284 | 0.157 | 1.17 | 2.66 | 1.82 | 4.54 |  |  |  |  |  |  |  |  |
| CC(C)(C)c1cc(C(P(=O)(O)O)P(=O)(O)O)cc(C(C)(C)C)c1O |  | > 100 |  |  |  | > 100 |  | > 100 |  | > 100 |  |  | > 100 | > 100 | > 100 |  |  |  |  |  |
| CC12CCC(=O)C[C@H]1CCC(OC=O)C2Br (stereo partly specified) |  | > 100 |  |  |  | > 100 |  | > 100 |  | > 100 |  |  | > 100 | > 100 | > 100 | > 100 |  |  |  |  |
| O=C1CCC2(c3ccc(Cl)cc3)Nc3cc(Cl)ccc3N12 (stereo unspecified) |  | 28.7 |  |  |  |  |  | 25.2 |  | 25.3 |  |  | 25.2 | 24.6 |  | 24.5 |  |  |  |  |
| CC(C)C1=Cc2ccc3c(c2C(=O)C1=O)CCCC3(C)C |  | 16.2 |  |  |  | 32.7 |  | 24.9 |  | 4.42 |  |  | 46.2 | 34 | 35.9 | 10.5 |  |  |  |  |
| CCOC(=O)c1nc2c(OC)nn(O)cc-2c1[N+](=O)[O-] |  | 36.4 |  |  |  |  |  |  |  | 36.2 |  |  | 29.3 | 36.2 | 79.6 | 32.4 |  |  |  |  |
| C=CCC1(c2ccc(OC)cc2)C=CC(=O)CC1 (stereo unspecified) |  | > 100 |  | > 100 |  | > 100 |  | > 100 |  | > 100 |  | > 100 | > 100 |  | > 100 |  |  |  |  |  |
| O=C(Nc1cccc(C(F)(F)F)c1)c1ccc(NC2=C(Cl)C(=O)N(Cc3ccc(Cl)cc3Cl)C2=O)cc1 | 15.3 | 32.4 | 2.2 | 5.71 |  |  | 1.78 | 3.5 | 2.31 | 5.66 | 2.88 | 8.26 | 36.8 | 25.9 | 24 |  | 3.82 | 6.51 | 5.92 |  |
| CN1CCN(c2ccc(Nc3cc(-c4cccc(-n5ccc6cc(C7CC7)cc(F)c6c5=O)c4CO)cn(C)c3=O)nc2)CC1 | 2.69 | 8.19 |  |  | 10.4 | 35.8 | 11.9 | 31.1 | 5.11 | 26.1 | 4.99 | 25.3 | 13.9 | 9.26 | 30.1 | 4.79 | 3 | 2.51 | 10.2 | 2.25 |
| COCC(OC)C(CC=C(C#N)C#N)OC (stereo unspecified) |  | > 100 |  |  |  | > 100 |  | > 100 |  | > 100 |  |  | > 100 | > 100 |  | > 100 |  |  |  |  |
| COC(=O)c1ccc2c(c1)C(=O)c1c-2n(CCCN=[N+]=[N-])c(=O)c2cc(OC)c(OC)cc12 | > 100 | > 100 | > 100 | > 100 | > 100 | > 100 | > 100 | > 100 | > 100 | > 100 | > 100 | > 100 | > 100 |  | > 100 | > 100 | > 100 |  | > 100 | > 100 |
| C/C(CC(=O)Nc1ccc(C)c(C)c1)=N\N(c1ccccc1)c1ccccc1 |  | > 100 |  |  |  | > 100 |  | > 100 |  | > 100 |  |  | > 100 | > 100 | > 100 | > 100 |  |  |  |  |
| Cc1cc2c(=O)c3ccccc3[nH]c2c(C(N)=O)c1C |  | > 100 |  |  |  |  |  | > 100 |  | > 100 |  |  | > 100 |  | > 100 | > 100 |  |  |  |  |
| O=C(NC[C@H](O)CN1CCc2ccccc2C1)c1cc(NC2COC2)ncn1 | 23 | > 100 | 7.24 | 35.4 | 15.4 | 29.8 | 11.4 | 24.5 | 22.7 | > 100 | 19.1 | 81.4 | > 100 |  | 40.2 | 68.3 | 20.8 |  | 9.88 | 14.1 |
| COc1ccc(OCC(=O)O)c2c1CCCC2=O |  | > 100 |  |  |  | > 100 |  | > 100 |  | > 100 |  |  | > 100 | > 100 | > 100 | > 100 |  |  |  |  |
| C#CC1/C(=C\C(=O)OC)CCCC1O (stereo unspecified) |  | > 100 |  |  |  | > 100 |  | > 100 |  | > 100 |  |  | > 100 | > 100 | > 100 | > 100 |  |  |  |  |
| O=C(/C(=C/c1ccc(Cl)cc1)c1ccccc1)c1ccccc1 |  | 31.4 |  |  |  | 31.2 |  |  |  | 30.6 |  |  | 38.4 | 44.9 | 31.7 | 31.3 |  |  |  |  |
| CN(C)CCC(/C=C/c1ccccc1)=N\Nc1ccccc1 |  | 13 |  |  |  |  |  | 13.1 |  | 2.43 |  |  | 15.4 | 28.2 |  | 13.1 |  |  |  |  |
| CCOC(=O)c1ccc(/C(C)=N/NC(N)=S)cc1 |  | > 100 |  |  |  | > 100 |  | > 100 |  | > 100 |  |  |  | > 100 |  |  |  |  |  |  |
| CN1C(=O)c2ccccc2NC(=O)C12O[C@@H]2c1ccccc1 (stereo partly specified) |  | > 100 |  | > 100 |  | > 100 |  | > 100 |  |  |  | > 100 | > 100 | > 100 |  | > 100 |  |  |  |  |
| CC(=O)Nc1ccc(-c2csc(Nc3cccc(-c4csc(C)n4)c3)n2)cc1 | 0.743 | 8.81 | 8.34 | 44.6 | 0.00657 | 8.98 | 0.26 | 8.62 | 0.289 | > 27.4 | 3.83 | > 30.4 | > 50 | > 29.1 | 16.8 |  | 2.38 | 6.92 | 4.92 |  |
